Target: T1, Glycogen phosphorylase, muscle form (Oryctolagus cuniculus, UniProt P00489)
T1 sequence (P00489 whole entry): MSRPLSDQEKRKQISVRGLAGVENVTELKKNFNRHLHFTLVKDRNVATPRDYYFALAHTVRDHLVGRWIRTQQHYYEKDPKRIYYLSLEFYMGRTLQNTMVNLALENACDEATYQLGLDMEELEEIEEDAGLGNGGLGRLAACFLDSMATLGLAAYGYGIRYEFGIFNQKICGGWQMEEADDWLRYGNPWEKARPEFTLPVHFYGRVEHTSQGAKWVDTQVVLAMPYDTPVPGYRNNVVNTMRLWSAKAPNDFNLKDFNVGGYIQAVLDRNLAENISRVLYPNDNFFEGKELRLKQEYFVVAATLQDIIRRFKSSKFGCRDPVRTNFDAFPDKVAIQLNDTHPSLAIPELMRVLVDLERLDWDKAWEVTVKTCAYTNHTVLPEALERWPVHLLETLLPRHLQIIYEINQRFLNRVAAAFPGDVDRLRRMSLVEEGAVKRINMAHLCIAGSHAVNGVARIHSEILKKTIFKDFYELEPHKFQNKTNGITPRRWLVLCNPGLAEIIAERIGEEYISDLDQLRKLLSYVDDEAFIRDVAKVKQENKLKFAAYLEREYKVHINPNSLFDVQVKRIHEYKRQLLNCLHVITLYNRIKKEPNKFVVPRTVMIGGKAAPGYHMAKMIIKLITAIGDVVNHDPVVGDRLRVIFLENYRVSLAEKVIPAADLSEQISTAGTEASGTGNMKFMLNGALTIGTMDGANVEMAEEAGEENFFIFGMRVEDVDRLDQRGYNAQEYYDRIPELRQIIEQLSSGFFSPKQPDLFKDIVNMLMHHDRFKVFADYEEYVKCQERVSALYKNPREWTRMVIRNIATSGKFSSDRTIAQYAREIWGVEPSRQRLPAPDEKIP
Assay: Inhibition of rabbit muscle glycogen phosphorylase b

| Structure (SMILES) | Ki [µM] |
| --- | --- |
| O=C1NC(=S)N[C@@]12OC[C@@H](O)[C@H](O)[C@H]2O | > 10000 |
| O=C1NC(=O)[C@]2(C[C@H](O)[C@@H]([C@@H](O)CO)O2)N1 | 220000 |
| O=C1NC(=O)[C@@]2(C[C@H](O)[C@@H]([C@@H](O)CO)O2)N1 | 8200 |
| O=C1NC(=O)[C@@]2(N1)OC[C@@H](O)[C@H](O)[C@H]2O | > 11500 |

Now from value to molecule:

| Ki [µM] | Structure (SMILES) |
| --- | --- |
| 59.7 | O=C1NCC(O)NC12O[C@H](CO)[C@@H](O)[C@H](O)[C@H]2O (some centres undefined) |
| 1200 | CN1C(=O)N[C@@]2(O[C@H](CO)[C@@H](O)[C@H](O)[C@H]2O)C1=O |
| 146 | NN1C(=O)N[C@@]2(O[C@H](CO)[C@@H](O)[C@H](O)[C@H]2O)C1=O |
| 550 | CC(=O)NN1C(=O)N[C@@]2(O[C@H](CO)[C@@H](O)[C@H](O)[C@H]2O)C1=O |
| 39 | O=C1N[C@@]2(O[C@H](CO)[C@@H](O)[C@H](O)[C@H]2O)C(=O)N1O |

Source: ChEMBL document CHEMBL1152626, “Glucose-based spiro-isoxazolines: a new family of potent glycogen phosphorylase inhibitors” (Bioorg Med Chem, 2009)
